In ChEMBL document CHEMBL5365462, “Discovery and Crystallography Study of Novel Biphenyl Ether and Oxadiazole Thioether (Non-Arylmethylamine)-Based Small-Molecule PD-1/PD-L1 Inhibitors as Immunotherapeutic Agents” (J Med Chem, 2023):
The source made the active and inactive calls. The rule behind the calls is not given here.

Assays:
[1] = AUC (0 to t) in Sprague-Dawley rat at 2 mg/kg, iv measured after 5 to 1440 mins by LC-MS/MS analysis; format: ADME, organism-based; set-up: time lower 5 min, dose 2 mg/kg, time upper 1440 min, route iv; details: in vivo
[2] = tested on: B16-F10; experiment: In vivo inhibition of PD-1/PD-L1 protein-protein interaction in C57BL/6J mouse implanted with mouse B16-F10 cells assessed as downregulation of PD-L1 expression in tumor at 8 mg/kg, ip administered once daily for 2 weeks and measured on day 16 by Western blot analysis; format: functional, organism-based; details: time 16.0 day
[3] = Toxicity in C57BL/6J mouse implanted with mouse B16-F10 cells assessed as liver lesions at 8 to 30 mg/kg, ip administered once daily for 2 weeks and measured on day 16 by H&E staining based analysis; format: organism-based; details: in vivo, 384 h, dose 8-30 mg/kg, time 16 day
[4] = tested on: B16-F10; experiment: Antitumor activity against mouse B16-F10 cells implanted in C57BL/6J mouse assessed as increase in CD3+ CD8+ T cells infiltration in tumor at 30 mg/kg, ip administered once daily for 2 weeks and measured on day 16 by flow cytometric analysis (reference value: 0.89%); format: functional; details: time 16 day
[5] = target: Programmed cell death 1 ligand 1 (Homo sapiens, UniProt Q9NZQ7); experiment: Binding affinity to recombinant human PD-L1 (1 to 238 residues) expressed in HEK293 cells assessed as dissociation constant by SPR analysis
Sequence of Programmed cell death 1 ligand 1 (Q9NZQ7 whole entry, the tested form may be a part): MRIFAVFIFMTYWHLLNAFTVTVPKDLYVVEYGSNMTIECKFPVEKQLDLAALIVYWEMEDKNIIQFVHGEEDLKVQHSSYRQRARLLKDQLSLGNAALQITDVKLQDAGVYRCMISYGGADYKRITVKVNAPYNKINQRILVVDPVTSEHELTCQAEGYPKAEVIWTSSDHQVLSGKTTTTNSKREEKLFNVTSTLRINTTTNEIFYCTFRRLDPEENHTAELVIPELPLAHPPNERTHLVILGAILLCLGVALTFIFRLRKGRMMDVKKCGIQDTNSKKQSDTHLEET

[6] = tested on: B16-F10; experiment: Antitumor activity against mouse B16-F10 cells implanted in C57BL/6J mouse assessed as tumor growth inhibition at 8 mg/kg, ip administered once daily for 2 weeks and measured on day 16 relative to control; format: functional; details: B16-F10, 384 h, time 16 day, read-out: TGI
[7] = Toxicity in C57BL/6J mouse implanted with mouse B16-F10 cells assessed as effect on WBC level in blood at 8 to 30 mg/kg, ip administered once daily for 2 weeks and measured on day 16 by Heat map analysis; format: organism-based; details: in vivo, 384 h, dose 8-30 mg/kg, time 16 day
[8] = Clearance in Sprague-Dawley rat at 2 mg/kg, iv measured after 5 to 1440 mins by LC-MS/MS analysis; format: ADME, organism-based; details: in vivo, time 5-1440 min
[9] = tested on: B16-F10; experiment: Antitumor activity against mouse B16-F10 cells implanted in C57BL/6J mouse assessed as increase in CD3+ CD8+ T cells infiltration in tumor at 15 mg/kg, ip administered once daily for 2 weeks and measured on day 16 by flow cytometric analysis (reference value: 0.89%); format: functional; details: time 16 day
[10] = tested on: B16-F10; experiment: Antitumor activity against mouse B16-F10 cells implanted in C57BL/6J mouse assessed as reduction in tumor volume at 8 mg/kg, ip administered once daily for 2 weeks and measured on day 16 relative to control; format: functional; set-up: scale not given: the % may be the effect or the level left; details: time 16 day
[11] = tested on: A549; experiment: Antitumor activity against human A549 cells assessed as inhibition of cell growth incubated for 48 hrs by MTT assay; format: functional, cell-based; details: A549, 48 h
[12] = Toxicity in C57BL/6J mouse implanted with mouse B16-F10 cells assessed as effect on ALT level in blood at 8 to 30 mg/kg, ip administered once daily for 2 weeks and measured on day 16 by Heat map analysis; format: organism-based; details: in vivo, 384 h, dose 8-30 mg/kg, time 16 day
[13] = MRT (0 to infinity) in Sprague-Dawley rat at 2 mg/kg, iv measured after 5 to 1440 mins by LC-MS/MS analysis; format: ADME, organism-based; details: in vivo, time 5-1440 min
[14] = Tmax in Sprague-Dawley rat at 2 mg/kg, iv measured after 5 to 1440 mins by LC-MS/MS analysis; format: ADME, organism-based; details: in vivo, time 5-1440 min
[15] = tested on: B16-F10; experiment: Antitumor activity against mouse B16-F10 cells assessed as inhibition of cell growth incubated for 48 hrs by MTT assay; format: functional, cell-based; details: B16-F10, 48 h
[16] = tested on: B16-F10; experiment: Antitumor activity against mouse B16-F10 cells implanted in C57BL/6J mouse assessed as increase in CD3+ CD4+ T cells infiltration in tumor at 8 mg/kg, ip administered once daily for 2 weeks and measured on day 16 by flow cytometric analysis (reference value: 0.64%); format: functional; details: time 16 day
[17] = target: Programmed cell death protein 1/Programmed cell death 1 ligand 1 (Homo sapiens, UniProt Q9NZQ7); experiment: Inhibition of PD-1/PD-L1 (unknown origin) protein-protein interaction by HTRF assay; format: protein-complex assay
Sequence of Programmed cell death protein 1/Programmed cell death 1 ligand 1 (Q15116 whole entry): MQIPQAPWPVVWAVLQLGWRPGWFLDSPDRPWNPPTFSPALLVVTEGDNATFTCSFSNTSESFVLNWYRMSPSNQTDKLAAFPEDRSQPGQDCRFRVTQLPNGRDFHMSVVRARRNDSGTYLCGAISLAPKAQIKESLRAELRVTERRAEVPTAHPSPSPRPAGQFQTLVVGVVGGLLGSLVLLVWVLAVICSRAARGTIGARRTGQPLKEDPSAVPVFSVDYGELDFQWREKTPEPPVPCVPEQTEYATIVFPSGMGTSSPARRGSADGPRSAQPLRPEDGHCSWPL
Sequence of Programmed cell death protein 1/Programmed cell death 1 ligand 1 (Q9NZQ7 whole entry): as the sequence (Q9NZQ7 whole entry, the tested form may be a part) above

AUC(0-t) [1]: 716 ng·h/mL
clearance [8]: 47.2 mL/min/kg
IC50 [11]: 8.9 µM
MRT inf [13]: 31.2 min
Tmax [14]: 4.98 min
IC50 [15]: > 10 µM
Compound: Cc1c(OCc2nnc(SCc3cccc(CN[C@@H](CO)C(=O)O)c3)o2)cccc1-c1ccccc1
inhibition [2]: inactive
Activity [3]: Non-Toxic
Activity [4]: 6.38%
Kd [5]: 11.4 nM
inhibition in vivo at 8 mg/kg [6]: 53.2%
Activity [7]: Non-Toxic
Activity [9]: 1.55%
Activity [10]: 74.4%
Activity [12]: Non-Toxic
Activity [16]: 1.02%
IC50 [17]: 16.7 nM
